Values of other authors in patent US8079695B2, “Inkjet inks having improved print uniformity” (Eastman Kodak Company, priority 2008, dated 2011).

Details: measured and predicted values (handbooks or ACD/LABS v8.14); lowest pKa given for di-carboxylic acids

| pKa | SMILES |
| --- | --- |
| 4.7 | C=C(C)C(=O)O [Methacrylic acid (MA), Methacrylic acid] |
| 1.0 | C=C(C)C(=O)OCCS(=O)(=O)O [2-propenoic acid, 2-methyl-, 2-sulfoethyl ester] |
| 3.1 | C/C(=C\C(=O)O)C(=O)O [Mesaconic acid] |
| 3.3 | C=C(Cl)C(=O)O [α-chloroacrylic acid] |

Second part, the compound before the results:

| SMILES | pKa |
| --- | --- |
| C=CCS(=O)(=O)O [Allyl sulfonic acid] | 1.5 |
| C=CC(=O)NC(C)(C)CS(=O)(=O)O [2-acrylamido-2-methylpropane sulfonic acid] | 1.7 |
| C=CC(=O)O [Acrylic acid] | 4.3 |
| O=C(O)/C=C/Cl [trans-chloroacrylic acid] | 3.7 |
